Data as given in patent US5807886A, “Bicyclic amidine dervatives as inhibitors of nitric oxide synthetase” (priority 1994, dated 1998).

Key:
[1] = biological target: T1, neuronal nitric oxide synthetase (Rattus norvegicus, UniProt P29476); assay: Screen A: neuronal nitric oxide synthetase inhibiting activity; type: biochemical; details: enzyme from rat hippocampus or cerebellum; 22° C., pH 7.4, 10 minutes; read-out: IC50 in Screen A (neuronal isoform)
T1 construct: Enzyme was isolated from rat hippocampus or cerebellum; from tissue; host or cells: male Sprague-Dawley rat cerebellum or hippocampus, 20,000 g supernatant

[2] = biological target: T2, macrophage nitric oxide synthetase (Mus musculus, UniProt P29477); assay: Screen B: macrophage nitric oxide synthetase inhibiting activity; type: biochemical, murine; details: macrophage IC50 / neuronal IC50
T2 construct: Enzyme is prepared, after induction, from the cultured murine macrophage cell line J774A-1; endogenous in cells; host or cells: J774A-1 murine macrophages induced with LPS and IFN-gamma (lysate); cells from laboratories of the Imperial Cancer Research Fund
Text: The enzyme nitric oxide synthetase has a number of isoforms and compounds of formula I, or pharmaceutically acceptable salts thereof, may be screened for nitric oxide synthetase inhibiting activity by procedures based on those of Bredt and Snyder in Proc. Natl. Acad. Sci. (1990) 87, 682-685 and Forstermann et. al., Eur. J. Pharm. (1992) 225, 161-165 as follows. Nitric oxide synthetase converts ^3 H-L-arginine to ^3 H-L-citrulline which can be separated by cation exchange chromatography and quantified by scintillation counting.
Enzyme is prepared, after induction, from the cultured murine macrophage cell line J774A-1 (obtained from laboratories of the Imperial Cancer Research Fund).
J774A-1 cells are cultured in Dulbecco's Modified Eagles Medium (DMEM) supplemented with 10% foetal bovine serum, 4 mM L-glutamine and antibiotics (100 units/ml penicillin G, 100 μg/ml streptomycin & 0.25 μg/ml amphotericin B).
Cells are routinely grown in 225 cm^2 flasks containing 35 ml medium kept at 37° C. and in a humidified atmosphere containing 5% CO2.
Nitric oxide synthetase is produced by cells in response to interferon-γ (IFNγ) and lipopolysaccharide (LPS). […]
Labelled L-citrulline is separated from labelled L-arginine using Dowex AG-50W. […] After allowing the samples to dry the L-citrulline is quantified by scintillation counting. […]

[3] = biological target: T3, endothelial nitric oxide synthetase (Homo sapiens, UniProt P29474); assay: Screen C: endothelial nitric oxide synthetase inhibiting activity; type: biochemical
T3 construct: Enzyme may be isolated from human umbilical vein endothelial cells (HUVECs); endogenous in cells; host or cells: HUVECs (cells purchased from Clonetics Corp, San Diego); CHAPS-solubilised pellet supernatant
T3 sequence (P29474 2-1203): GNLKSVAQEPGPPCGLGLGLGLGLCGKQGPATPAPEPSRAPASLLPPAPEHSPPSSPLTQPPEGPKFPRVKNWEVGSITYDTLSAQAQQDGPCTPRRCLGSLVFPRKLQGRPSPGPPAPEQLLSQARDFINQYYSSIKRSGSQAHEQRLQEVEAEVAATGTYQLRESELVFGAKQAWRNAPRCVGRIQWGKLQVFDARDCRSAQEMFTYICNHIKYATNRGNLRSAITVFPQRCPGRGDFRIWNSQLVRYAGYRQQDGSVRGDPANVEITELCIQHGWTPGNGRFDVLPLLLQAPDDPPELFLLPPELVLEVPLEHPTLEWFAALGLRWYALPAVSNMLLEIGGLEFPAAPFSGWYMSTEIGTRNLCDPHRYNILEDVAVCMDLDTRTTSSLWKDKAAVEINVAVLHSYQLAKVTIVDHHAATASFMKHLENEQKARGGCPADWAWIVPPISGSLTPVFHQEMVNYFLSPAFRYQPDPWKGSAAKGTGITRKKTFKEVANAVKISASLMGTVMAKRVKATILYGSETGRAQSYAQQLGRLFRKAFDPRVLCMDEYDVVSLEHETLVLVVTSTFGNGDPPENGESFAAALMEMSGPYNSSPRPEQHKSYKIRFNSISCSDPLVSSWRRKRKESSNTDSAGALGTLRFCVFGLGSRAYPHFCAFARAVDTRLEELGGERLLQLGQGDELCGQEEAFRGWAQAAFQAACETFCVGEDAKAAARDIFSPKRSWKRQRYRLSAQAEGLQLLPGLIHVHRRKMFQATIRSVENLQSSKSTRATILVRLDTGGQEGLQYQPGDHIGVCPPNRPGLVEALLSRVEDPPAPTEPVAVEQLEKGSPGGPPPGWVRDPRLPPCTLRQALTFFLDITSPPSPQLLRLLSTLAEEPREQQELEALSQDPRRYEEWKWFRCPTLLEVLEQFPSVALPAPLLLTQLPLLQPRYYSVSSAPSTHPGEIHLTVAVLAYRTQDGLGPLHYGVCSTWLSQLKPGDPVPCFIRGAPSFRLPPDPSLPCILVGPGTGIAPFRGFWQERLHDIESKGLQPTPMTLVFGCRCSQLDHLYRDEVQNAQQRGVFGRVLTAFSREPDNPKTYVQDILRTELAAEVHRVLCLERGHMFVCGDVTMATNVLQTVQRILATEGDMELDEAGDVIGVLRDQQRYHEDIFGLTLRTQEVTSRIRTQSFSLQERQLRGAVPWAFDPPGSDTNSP

T1 sequence (P29476 whole entry, canonical isoform): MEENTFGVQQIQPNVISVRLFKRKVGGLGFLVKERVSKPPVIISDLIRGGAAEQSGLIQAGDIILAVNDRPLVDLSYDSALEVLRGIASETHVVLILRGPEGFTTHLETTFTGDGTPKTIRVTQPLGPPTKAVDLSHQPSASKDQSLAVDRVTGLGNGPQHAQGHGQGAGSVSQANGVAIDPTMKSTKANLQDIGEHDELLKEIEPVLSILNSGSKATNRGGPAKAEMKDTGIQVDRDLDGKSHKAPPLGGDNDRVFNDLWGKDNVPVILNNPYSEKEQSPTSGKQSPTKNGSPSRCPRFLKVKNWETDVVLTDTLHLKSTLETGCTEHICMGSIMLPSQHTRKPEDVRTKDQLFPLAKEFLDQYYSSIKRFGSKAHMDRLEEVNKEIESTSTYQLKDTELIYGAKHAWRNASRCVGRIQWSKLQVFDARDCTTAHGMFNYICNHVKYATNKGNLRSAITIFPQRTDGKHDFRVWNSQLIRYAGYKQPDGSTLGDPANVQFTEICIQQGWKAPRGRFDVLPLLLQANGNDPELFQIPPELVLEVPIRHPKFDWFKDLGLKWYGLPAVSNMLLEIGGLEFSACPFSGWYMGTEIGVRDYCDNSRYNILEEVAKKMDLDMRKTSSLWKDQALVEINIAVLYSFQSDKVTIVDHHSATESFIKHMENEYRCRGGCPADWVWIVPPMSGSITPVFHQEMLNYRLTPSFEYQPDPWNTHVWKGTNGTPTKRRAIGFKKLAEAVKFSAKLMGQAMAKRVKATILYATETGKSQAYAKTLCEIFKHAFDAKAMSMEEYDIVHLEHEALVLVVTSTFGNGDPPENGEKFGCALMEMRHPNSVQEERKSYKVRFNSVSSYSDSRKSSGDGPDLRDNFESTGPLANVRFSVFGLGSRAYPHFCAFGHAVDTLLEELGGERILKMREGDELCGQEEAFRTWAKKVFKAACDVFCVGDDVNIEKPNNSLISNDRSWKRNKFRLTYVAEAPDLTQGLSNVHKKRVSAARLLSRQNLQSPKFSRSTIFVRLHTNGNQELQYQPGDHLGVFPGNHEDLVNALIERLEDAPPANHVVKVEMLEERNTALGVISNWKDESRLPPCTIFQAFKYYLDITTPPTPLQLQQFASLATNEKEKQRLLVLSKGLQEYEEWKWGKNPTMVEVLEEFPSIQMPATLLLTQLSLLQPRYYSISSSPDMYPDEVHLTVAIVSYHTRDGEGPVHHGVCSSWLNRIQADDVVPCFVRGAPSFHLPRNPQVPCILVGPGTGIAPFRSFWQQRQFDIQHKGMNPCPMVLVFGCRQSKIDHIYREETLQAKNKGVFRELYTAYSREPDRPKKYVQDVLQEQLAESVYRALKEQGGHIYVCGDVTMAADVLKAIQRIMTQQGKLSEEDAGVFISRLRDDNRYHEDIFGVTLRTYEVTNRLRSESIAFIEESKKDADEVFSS

| IC50 [1] | IC50 in Screen B relative to that obtained in Screen A (selectivity) [2] | IC50 in Screen C relative to that obtained in Screen A (selectivity) ([3]; endothelial IC50 / neuronal IC50) | inhibition at 1 µM ([3]; at a concentration of 1 μM, HUVEC enzyme, read-out: inhibition of nitric oxide synthetase (reference standard, Screen C)) | SMILES |
| --- | --- | --- | --- | --- |
| < 10 µM | more than 10 times | more than 10 times |  | N=C(Nc1ccc2c(c1)CC(NCc1ccccc1)C2)c1cccs1 (stereo not shown) [Example 1, N-((2-(Phenylmethyl)amino)indan-5-yl)-2-thiophenecarboximidamide dioxalate] |
|  |  |  | 70 to 90% | N=C(NCCC[C@H](N)C(=O)O)N[N+](=O)[O-] [N-nitro-L-arginine, reference compound] |
